From patent US20260356990A1, “HEPARIN DODECASACCHARIDES CONTAINING TWO ANTITHROMBIN-BINDING SEQUENCES AS WELL AS PREPARATION METHODS AND APPLICATIONS THEREOF” (SHANDONG UNIVERSITY, priority 2022, published 2026)

How the values were obtained:
factor Xa [1] = assay: anti-factor Xa (FXa) activity, chromogenic substrate assay kit; type: biochemical; details: in vitro; for IC50 for anti-FXa activity: mass concentration; for IC50: molar concentration
Protocol: The anti-factor Xa (FXa) activity of the novel heparin dodecasaccharides I-2 and I-10 prepared in the present disclosure was determined using a commercially available chromogenic substrate assay kit. […] Therefore, the novel heparin dodecasaccharides I-2 and I-10 prepared in the present disclosure are specific inhibitors of factor Xa.

factor IIa = assay: anti-factor IIa activity; type: biochemical; details: in vitro; data not shown
factor Xa [2] = assay: neutralization effect of protamine on the anti-factor Xa activity, chromogenic substrate assay; type: biochemical; details: in vitro, protamine at different concentrations
Protocol: Using the chromogenic substrate assay, the effect of different concentrations of protamine on the anti-Factor Xa (FXa) activity of the novel heparin dodecasaccharides I-2 and I-10 was evaluated. […] The in vitro anti-FXa activity of the novel heparin dodecasaccharide I-2 could be reversed by >80% with protamine, as shown in FIG. 4. Therefore, the heparin dodecasaccharides I-2 and I-10 prepared in the present disclosure are novel heparin molecules whose anticoagulant activity can be neutralized by protamine.

anticoagulant effect = details: background statement; cited from earlier work

IC50 for anti-FXa activity (factor Xa [1]) [µg/mL]	IC50 (factor Xa [1]) [nM]	Compound	anti-factor IIa activity (factor IIa)	reversal of the anti-FXa activity by protamine (in words) (factor Xa [2])	neutralization of the anticoagulant effect by protamine (in words) (anticoagulant effect)
0.01677	4.34	CC(=O)N[C@H]1[C@@H](O[C@H]2[C@H](O)[C@@H](O)[C@H](O[C@H]3[C@H](OS(=O)(=O)O)[C@@H](NS(=O)(=O)O)[C@@H](O[C@H]4[C@H](O)[C@@H](OS(=O)(=O)O)[C@H](O[C@H]5[C@H](O)[C@@H](NS(=O)(=O)O)[C@@H](O[C@H]6[C@H](O)[C@@H](O)[C@H](Oc7ccc([N+](=O)[O-])cc7)O[C@@H]6C(=O)O)O[C@@H]5COS(=O)(=O)O)O[C@H]4C(=O)O)O[C@@H]3COS(=O)(=O)O)O[C@@H]2C(=O)O)O[C@H](COS(=O)(=O)O)[C@@H](O[C@@H]2O[C@H](C(=O)O)[C@@H](O[C@H]3O[C@H](COS(=O)(=O)O)[C@@H](O[C@@H]4O[C@@H](C(=O)O)[C@@H](O[C@H]5O[C@H](COS(=O)(=O)O)[C@@H](O[C@@H]6O[C@H](C(=O)O)[C@@H](O[C@H]7O[C@H](COS(=O)(=O)O)[C@@H](O)[C@H](O)[C@H]7NS(=O)(=O)O)[C@H](O)[C@H]6O)[C@H](OS(=O)(=O)O)[C@H]5NS(=O)(=O)O)[C@H](O)[C@H]4OS(=O)(=O)O)[C@H](O)[C@H]3NS(=O)(=O)O)[C@H](O)[C@H]2O)[C@@H]1O [Compound I-2]	no significant anti-factor IIa activity		
0.01803	4.54	CC(=O)N[C@H]1[C@@H](O[C@H]2[C@H](O)[C@@H](O)[C@H](O[C@H]3[C@H](OS(=O)(=O)O)[C@@H](NS(=O)(=O)O)[C@@H](O[C@H]4[C@H](O)[C@@H](OS(=O)(=O)O)[C@H](O[C@H]5[C@H](O)[C@@H](NS(=O)(=O)O)[C@@H](O[C@H]6[C@H](O)[C@@H](O)[C@H](Oc7ccc([N+](=O)[O-])cc7)O[C@@H]6C(=O)O)O[C@@H]5COS(=O)(=O)O)O[C@H]4C(=O)O)O[C@@H]3COS(=O)(=O)O)O[C@@H]2C(=O)O)O[C@H](COS(=O)(=O)O)[C@@H](O[C@@H]2O[C@@H](C(=O)O)[C@@H](O[C@H]3O[C@H](COS(=O)(=O)O)[C@@H](O[C@@H]4O[C@@H](C(=O)O)[C@@H](O[C@H]5O[C@H](COS(=O)(=O)O)[C@@H](O[C@@H]6O[C@H](C(=O)O)[C@@H](O[C@H]7O[C@H](COS(=O)(=O)O)[C@@H](O)[C@H](O)[C@H]7NS(=O)(=O)O)[C@H](O)[C@H]6O)[C@H](OS(=O)(=O)O)[C@H]5NS(=O)(=O)O)[C@H](O)[C@H]4OS(=O)(=O)O)[C@H](O)[C@H]3NS(=O)(=O)O)[C@H](O)[C@H]2OS(=O)(=O)O)[C@@H]1O [Compound I-10]	no significant anti-factor IIa activity	completely reversed	
0.01263	7.3	CO[C@H]1O[C@H](COS(=O)(=O)O)[C@@H](O[C@@H]2O[C@@H](C(=O)O)[C@@H](O[C@H]3O[C@H](COS(=O)(=O)O)[C@@H](O[C@@H]4O[C@H](C(=O)O)[C@@H](O[C@H]5O[C@H](COS(=O)(=O)O)[C@@H](O)[C@H](O)[C@H]5NS(=O)(=O)O)[C@H](O)[C@H]4O)[C@H](OS(=O)(=O)O)[C@H]3NS(=O)(=O)O)[C@H](O)[C@H]2OS(=O)(=O)O)[C@H](O)[C@H]1NS(=O)(=O)O [fondaparinux sodium (Arixtra), reference compound]		almost completely unneutralizable	not neutralized by protamine
